Data from US20230099344A1, “COMPOUNDS AND METHODS FOR THE TARGETED DEGRADATION OF IRAK-4” (Arvinas Operations, Inc., priority 2021, published 2023).

Columns and labels:
Type in all cases: cell-based
[1] = molecular target: T1, IRAK-4 (Homo sapiens, UniProt Q9NWZ3); experiment: IRAK-4 ELISA, PBMC degradation; parameters: endogenous in cells; host or cells: PBMC; conditions: treated overnight
T1 sequence (Q9NWZ3 1-460): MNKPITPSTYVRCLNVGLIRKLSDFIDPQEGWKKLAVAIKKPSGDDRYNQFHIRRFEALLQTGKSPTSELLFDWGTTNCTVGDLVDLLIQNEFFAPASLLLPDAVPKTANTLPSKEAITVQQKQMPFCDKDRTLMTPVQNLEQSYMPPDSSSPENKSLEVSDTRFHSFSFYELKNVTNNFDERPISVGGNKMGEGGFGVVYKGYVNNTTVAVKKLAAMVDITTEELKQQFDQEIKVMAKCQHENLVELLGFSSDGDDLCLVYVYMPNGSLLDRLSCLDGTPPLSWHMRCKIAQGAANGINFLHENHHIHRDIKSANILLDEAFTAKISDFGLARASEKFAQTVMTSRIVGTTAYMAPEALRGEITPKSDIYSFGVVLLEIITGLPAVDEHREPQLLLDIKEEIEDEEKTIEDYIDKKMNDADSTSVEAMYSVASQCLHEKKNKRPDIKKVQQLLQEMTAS
Procedure, shortened: (§1)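 IRAK-4 levels measured by matched-antibody-pair ELISA on lysates after overnight compound exposure. Cells seeded same day: PBMC at 2×10^6/ml, OCI-Ly10 at 1×10^6/ml.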

[2] = test system: IL8; experiment: IL-1β stimulated IL8 inhibition assay in PBMC; conditions: human PBMCs, IL-1β stimulation, compound overnight, IL8 by MSD after 24 hrs; for IC50: read-out: IL1β stim IL8 inhibition IC50; for Emax: read-out: IL1β stim IL8 inhibition Ymax
Procedure, shortened: (§2)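 Seed human PBMC, 2.0×10^6 cells/mL → compound overnight → stimulant (IL-1β, LPS or R848) at per-donor EC50 → 24 hrs → media to MSD for IL6/IL8.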

[3] = test system: IL6; experiment: IL-1β stimulated IL6 inhibition assay in PBMC; conditions: PBMC, human PBMCs, IL-1β stimulation, compound overnight, IL6 by MSD after 24 hrs; for IC50: Homo sapiens, 24 h, read-out: IL1β stim IL6 inhibition IC50; for Emax: read-out: IL1β stim IL6 inhibition Ymax
Procedure, shortened: as §2

[4] = molecular target: T1, IRAK-4; experiment: IRAK-4 ELISA, OCI-Ly10 degradation; parameters: endogenous in cells; conditions: treated overnight; for Dmax: OCI-Ly10, OCI-Ly10 cells; for DC50: OCI-Ly10 cells
Procedure, shortened: as §1

DC50 [1] | Dmax [1] | PBMC DC90 [1] | IC50 [2] | IC50 [3] | Dmax [4] | DC50 [4] | SMILES | Emax [3] | Emax [2]
< 0.001 µM | ≥ 90% | A (A represents a DC90 value <10.0 nM) | ≥ 0.1 µM | 0.01 to 0.05 µM | ≥ 90% | < 0.01 µM | COc1cc2nn(C3CCN(CC4CN(c5ccc6c(c5)C(=O)N(C5CCC(=O)NC5=O)C6=O)C4)CC3)cc2cc1NC(=O)c1cnn2cccnc12 (centres unmarked) [Example 202] | 80 to 90% | –
< 0.001 µM | ≥ 90% | 0.004 µM | 0.01 to 0.05 µM | < 0.01 µM | ≥ 90% | < 0.01 µM | CC(C)Oc1cc2c(cc1NC(=O)c1cnn3cccnc13)CN(C1CCN(CC3CN(c4ccc5c(c4)CN(C4CCC(=O)NC4=O)C5=O)C3)CC1)C2=O (centres unmarked) [Example 4] | ≥ 90% | 80 to 90%
< 0.001 µM | ≥ 90% | A (A represents a DC90 value <10.0 nM) | 0.01 to 0.05 µM | < 0.01 µM | ≥ 90% | < 0.01 µM | COc1cc2nn([C@H]3CC[C@H](N(C)CC#Cc4ccc5c(c4)C(=O)N(C4CCC(=O)NC4=O)C5=O)CC3)cc2cc1NC(=O)c1cnn2cccnc12 (some centres unmarked) [Example 338] | ≥ 90% | < 70%
< 0.001 µM | ≥ 90% | A (A represents a DC90 value <10.0 nM) | 0.01 to 0.05 µM | < 0.01 µM | ≥ 90% | < 0.01 µM | O=C1CCC(N2Cc3cc(N4CC(CN5CCC(n6cc7cc(NC(=O)c8cnn9cccnc89)c(OCC8CC8)cc7n6)CC5)C4)ccc3C2=O)C(=O)N1 (centres unmarked) [Example 134] | ≥ 90% | 70 to 80%
< 0.001 µM | ≥ 90% | A (A represents a DC90 value <10.0 nM) | 0.01 to 0.05 µM | < 0.01 µM | ≥ 90% | < 0.01 µM | CC(C)Oc1cc2c(cc1NC(=O)c1cnn3cccnc13)CN(C1CCN(C3CCN(c4ccc5c(c4)CN(C4CCC(=O)NC4=O)C5=O)CC3)CC1)C2=O (centres unmarked) [Example 282] | ≥ 90% | < 70%
< 0.001 µM | ≥ 90% | A (A represents a DC90 value <10.0 nM) | 0.05 to 0.1 µM | 0.01 to 0.05 µM | ≥ 90% | < 0.01 µM | CC(C)Oc1cc2c(cc1NC(=O)c1cnn3cccnc13)CN(C1CCN(C3CCN(c4ccc5c(c4)C(=O)N(C4CCC(=O)NC4=O)C5=O)CC3)CC1)C2=O (centres unmarked) [Example 64] | 80 to 90% | < 70%
< 0.001 µM | 80 to 90% | A (A represents a DC90 value <10.0 nM) | 0.01 to 0.05 µM | < 0.01 µM | 70 to 80% | < 0.01 µM | COc1cc2nn(C3CCN(CC4CN(c5ccc6c(c5)CN(C5CCC(=O)NC5=O)C6=O)C4)CC3)cc2cc1NC(=O)c1cnn2cccnc12 (centres unmarked) [Example 142] | ≥ 90% | < 70%
< 0.001 µM | ≥ 90% | A (A represents a DC90 value <10.0 nM) | 0.01 to 0.05 µM | 0.01 to 0.05 µM | ≥ 90% | < 0.01 µM | COc1cc(N2CCC(CN3CCC(N4Cc5cc(NC(=O)c6cnn7cccnc67)c(OC(C)C)cc5C4=O)CC3)CC2)cc2c1C(=O)N(C1CCC(=O)NC1=O)C2=O (centres unmarked) [Example 12] | 80 to 90% | < 70%
0.001 to 0.005 µM | 80 to 90% | A (A represents a DC90 value <10.0 nM) | 0.01 to 0.05 µM | < 0.01 µM | ≥ 90% | < 0.01 µM | COc1c(N2CC(CN3CCC(n4cc5cc(NC(=O)c6cnn7cccnc67)c(OCC6CC6)cc5n4)CC3)C2)ccc2c1C(=O)N(C1CCC(=O)NC1=O)C2=O (centres unmarked) [Example 285, N-(6-(cyclopropylmethoxy)-2-(1-((1-(2-(2,6-dioxopiperidin-3-yl)-4-methoxy-1,3-dioxoisoindolin-5-yl)azetidin-3-yl)methyl)piperidin-4-yl)-2H-indazol-5-yl)pyrazolo[1,5-a]pyrimidine-3-carboxamide] | 80 to 90% | < 70%
< 0.001 µM | ≥ 90% | A (A represents a DC90 value <10.0 nM) | 0.05 to 0.1 µM | 0.01 to 0.05 µM | ≥ 90% | < 0.01 µM | O=C1CCC(NC(=O)c2ccc(N3CCC(CN4CCC(n5cc6cc(NC(=O)c7cnn8cccnc78)c(OCC7CC7)cc6n5)CC4)CC3)cc2F)C(=O)N1 (centres unmarked) [Example 288] | ≥ 90% | 70 to 80%
< 0.001 µM | ≥ 90% | A (A represents a DC90 value <10.0 nM) | < 0.01 µM | < 0.01 µM | ≥ 90% | < 0.01 µM | O=C1CCC(N2C(=O)c3ccc(N4CCC(CN5CCC([C@H](F)Cn6cc7cc(NC(=O)c8cnn9cccnc89)c(OCC8CC8)cc7n6)CC5)CC4)cc3C2=O)C(=O)N1 (some centres unmarked) [Example 182] | 80 to 90% | < 70%
0.005 to 0.01 µM | 80 to 90% | D (D represents a DC90 value ≥50 nM) | 0.05 to 0.1 µM | 0.01 to 0.05 µM | ≥ 90% | < 0.01 µM | O=C1CCC(N2C(=O)c3ccc(N4CC(N5CCC(N6Cc7cc(NC(=O)c8cnn9cccnc89)c(N8CCC(N9CCC9)CC8)cc7C6=O)CC5)C4)cc3C2=O)C(=O)N1 (centres unmarked) [Example 99] | ≥ 90% | 80 to 90%
< 0.001 µM | 80 to 90% | A (A represents a DC90 value <10.0 nM) | 0.05 to 0.1 µM | 0.01 to 0.05 µM | < 70% | < 0.01 µM | COc1cc2nn(C3CCN(CC4(F)CN(c5ccc6c(c5)CN(C5CCC(=O)NC5=O)C6=O)C4)CC3)cc2cc1NC(=O)c1cnn2cccnc12 (centres unmarked) [Example 274] | ≥ 90% | 70 to 80%

SMILES | DC50 [1] | Dmax [1] | PBMC DC90 [1] | IC50 [2] | IC50 [3] | Dmax [4] | DC50 [4] | Emax [3] | Emax [2]
O=C1CCC(N2C(=O)c3ccc(N4CC(CN5CCC(N6Cc7cc(NC(=O)c8cnn9cccnc89)c(N8CCOCC8)cc7C6=O)CC5)C4)cc3C2=O)C(=O)N1 (centres unmarked) [Example 96] | 0.001 to 0.005 µM | ≥ 90% | B (B represents a DC90 value ≥10.0 nM and <25.0 nM) | ≥ 0.1 µM | 0.05 to 0.1 µM | ≥ 90% | 0.01 to 0.05 µM | ≥ 90% | < 70%
COc1cc2nn(C3CCN(CCc4ccc5c(c4)CN(C4CCC(=O)NC4=O)C5=O)CC3)cc2cc1NC(=O)c1cnn2cccnc12 (centres unmarked) [Example 143] | 0.001 to 0.005 µM | ≥ 90% | C (C represents a DC90 value ≥25.0 nM and <50 nM) | < 0.01 µM | < 0.01 µM | ≥ 90% | < 0.01 µM | ≥ 90% | 70 to 80%
O=C1CCC(N2C(=O)c3ccc(N4CC(CN5CCC(N6Cc7cc(NC(=O)c8cnn9cccnc89)c(OCC8CC8)cc7C6=O)CC5)C4)cc3C2=O)C(=O)N1 (centres unmarked) [Example 86] | 0.001 to 0.005 µM | ≥ 90% | B (B represents a DC90 value ≥10.0 nM and <25.0 nM) | 0.01 to 0.05 µM | < 0.01 µM | ≥ 90% | < 0.01 µM | ≥ 90% | 70 to 80%
O=C1CCC(N2C(=O)c3ccc(N4CCC(CN5CC[C@H](n6cc7cc(NC(=O)c8cnn9cccnc89)c(OCC8CC8)cc7n6)[C@@H](F)C5)CC4)cc3C2=O)C(=O)N1 (some centres unmarked) [Example 184] | 0.001 to 0.005 µM | 80 to 90% | C (C represents a DC90 value ≥25.0 nM and <50 nM) | 0.01 to 0.05 µM | 0.01 to 0.05 µM | < 70% | < 0.01 µM | 80 to 90% | < 70%
O=C1CCC(N2Cc3cc(CCN4CCC(n5cc6cc(NC(=O)c7cnn8cccnc78)c(OCC7CC7)cc6n5)CC4)ccc3C2=O)C(=O)N1 (centres unmarked) [Example 126] | 0.001 to 0.005 µM | < 70% | B (B represents a DC90 value ≥10.0 nM and <25.0 nM) | < 0.01 µM | < 0.01 µM | ≥ 90% | < 0.01 µM | ≥ 90% | < 70%
